Data reported in the CheMixHub viscosity set.
± gives the uncertainty stated by the source.

Test: xn = mol fraction of the nth substance listed

CCCCCCO + CC#N
viscosity [mPa·s], 101 kPa
Conditions	298.15 K	303.15 K	308.15 K
x2 = 0.1095	3.187 ± 0.28	2.576 ± 0.23	2.165 ± 0.19
x2 = 0.2173	2.358 ± 0.21	2.078 ± 0.18	1.839 ± 0.17
x2 = 0.2885	1.966 ± 0.17	1.831 ± 0.16	1.573 ± 0.14
x2 = 0.3844	1.55 ± 0.14	1.386 ± 0.13	1.233 ± 0.12
x2 = 0.5121	1.109 ± 0.11	1.004 ± 0.096	0.913 ± 0.088
x2 = 0.627	0.84 ± 0.082	0.766 ± 0.076	0.704 ± 0.071
x2 = 0.7147	0.676 ± 0.069	0.611 ± 0.063	0.57 ± 0.06
x2 = 0.7903	0.545 ± 0.058	0.513 ± 0.055	0.483 ± 0.052
x2 = 0.8533	0.47 ± 0.051	0.445 ± 0.049	0.419 ± 0.047
x2 = 0.9086	0.415 ± 0.047	0.395 ± 0.045	0.376 ± 0.044
x2 = 0.9558	0.377 ± 0.044	0.36 ± 0.042	0.343 ± 0.041

O=C1CCCCC1 + CCC(C)O
298.15 K, 101 kPa
Conditions	viscosity [mPa·s]
x1 = 0.1006	2.33 ± 0.03
x1 = 0.209	1.9 ± 0.02
x1 = 0.3005	1.66 ± 0.02
x1 = 0.403	1.55 ± 0.02
x1 = 0.4997	1.51 ± 0.02
x1 = 0.6988	1.57 ± 0.02
x1 = 0.8007	1.66 ± 0.02
x1 = 0.8986	1.79 ± 0.02

O=C1CCCCC1 + CCCCCCCO
298.15 K, 101 kPa
Conditions	viscosity [mPa·s]
x2 = 0.1013	1.965 ± 0.016
x2 = 0.1998	2.034 ± 0.017
x2 = 0.3029	2.16 ± 0.018
x2 = 0.4029	2.351 ± 0.02
x2 = 0.4994	2.584 ± 0.022
x2 = 0.5977	2.914 ± 0.025
x2 = 0.6971	3.335 ± 0.028
x2 = 0.8008	3.921 ± 0.034
x2 = 0.8949	4.663 ± 0.039

OCCOCCOCCOCCOCCOCCOCCOCCO + O
viscosity [mPa·s], 100 kPa
Conditions	293.15 K	298.15 K	303.15 K	308.15 K	313.15 K	318.15 K	323.15 K
x2 = 0.042	108.4 ± 4.3	81.84 ± 2.2	63.33 ± 1.5	50.05 ± 0.84	40.2 ± 0.6	32.83 ± 0.43	27.17 ± 0.32
x2 = 0.111	107.4 ± 4.3	81.02 ± 2.2	62.63 ± 1.5	49.38 ± 0.9	39.67 ± 0.59	32.32 ± 0.43	26.74 ± 0.32
x2 = 0.267	103 ± 6.1	77.64 ± 6.1	60.34 ± 4.7	47.5 ± 3.5	38.03 ± 2.7	30.97 ± 2	25.55 ± 1.6
x2 = 0.294	98.4 ± 6.3	74.46 ± 2.1	57.33 ± 2	45.14 ± 1.6	36.19 ± 1.3	29.5 ± 1.1	24.36 ± 0.89

O=C1CCCCC1 + c1ccccc1
viscosity [mPa·s]
Conditions	298.15 K	303.15 K	308.15 K
101 kPa, x1 = 0.0989	0.674 ± 0.091	–	–
101 kPa, x1 = 0.1983	0.731 ± 0.098	–	–
101 kPa, x1 = 0.2984	0.8 ± 0.11	–	–
101 kPa, x1 = 0.3848	0.865 ± 0.11	–	–
101 kPa, x1 = 0.5166	0.856 ± 0.11	–	–
101 kPa, x1 = 0.5909	1.086 ± 0.14	–	–
101 kPa, x1 = 0.6876	1.37 ± 0.17	–	–
101 kPa, x1 = 0.7775	1.481 ± 0.18	–	–
101 kPa, x1 = 0.8574	1.534 ± 0.19	–	–
101.33 kPa, x1 = 0.1014	0.661 ± 0.017	0.616 ± 0.016	0.574 ± 0.016
101.33 kPa, x1 = 0.1996	0.726 ± 0.019	0.676 ± 0.018	0.629 ± 0.017
101.33 kPa, x1 = 0.3037	0.803 ± 0.02	0.747 ± 0.019	0.694 ± 0.018
101.33 kPa, x1 = 0.4039	0.888 ± 0.022	0.824 ± 0.021	0.771 ± 0.02
101.33 kPa, x1 = 0.502	0.996 ± 0.025	0.942 ± 0.023	0.85 ± 0.021
101.33 kPa, x1 = 0.5997	1.122 ± 0.027	1.026 ± 0.025	0.945 ± 0.024
101.33 kPa, x1 = 0.7018	1.28 ± 0.031	1.175 ± 0.028	1.084 ± 0.027
101.33 kPa, x1 = 0.8023	1.472 ± 0.035	1.346 ± 0.032	1.236 ± 0.03
101.33 kPa, x1 = 0.9237	1.773 ± 0.041	1.61 ± 0.038	1.472 ± 0.035
